The record followed here is PubChem BioAssay (NCI).

Some test systems named below: RPMI-8226 leukemia; K-562 leukemia; PC-3 prostate; A549 NSCLC; OVCAR-5 ovarian; SK-MEL-28 melanoma; SNB-19 CNS; 786-0 renal; SF-268 CNS; HT29 colon.
Assay in all cases: NCI anticancer screen, dose series, 48 h

Where “and” joins values, the source holds several entries; their conditions need not be identical. Identical values can stand only once.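 The compound was tested at five concentrations on cells cultured in 96-well plates, with a 48-hour exposure period. GI50: concentration for 50% inhibition of growth. TGI is the concentration that stops growth completely.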

Take `CCCCCCCCCCC(C(O)c1ccccc1)N1CCCCC1` (configuration not stated): the GI50 in the experiment with RPMI-8226 leukemia is 1.9 µM; in the experiment with K-562 leukemia, 2.19 µM; with PC-3 prostate it was 3.43 µM; with A549 NSCLC it was 4.61 µM; in the experiment on OVCAR-5 ovarian it was 2.47 µM; with SK-MEL-28 melanoma, 1.83 µM. The GI50 is 1.84 µM in the experiment with SNB-19 CNS, 1.78 µM in the experiment on 786-0 renal, 1.51 µM with SF-268 CNS and 1.72 µM in the experiment with HT29 colon. Also, the TGI was 4.34 µM with RPMI-8226 leukemia; 5.93 µM with K-562 leukemia; 12.4 µM with PC-3 prostate; 17.1 µM in the experiment with A549 NSCLC; 6.85 µM in the experiment on OVCAR-5 ovarian; 3.32 µM in the experiment with SK-MEL-28 melanoma. Moreover, the TGI came to 3.95 µM in the experiment on SNB-19 CNS, 3.25 µM in the experiment with 786-0 renal, 4.73 µM in the experiment on SF-268 CNS and 4.41 µM with HT29 colon.
With `COC(=O)CCC1CCC(c2cc(F)ccc2F)(S(=O)(=O)c2ccc(Cl)cc2)CC1` (configuration not stated), the GI50 with RPMI-8226 leukemia is 41.9 µM; with K-562 leukemia, more than 100 µM; in the experiment on PC-3 prostate, 30.7 µM; in the experiment on A549 NSCLC, 64.4 µM; in the experiment on OVCAR-5 ovarian, more than 100 µM; in the experiment on SK-MEL-28 melanoma it was more than 100 µM. Also, the GI50 in the experiment on SNB-19 CNS was more than 100 µM; in the experiment on 786-0 renal, more than 100 µM; in the experiment on SF-268 CNS, more than 100 µM; in the experiment on HT29 colon, 82.2 µM. For the same molecule, the TGI in the experiment with RPMI-8226 leukemia, with K-562 leukemia, with PC-3 prostate, in the experiment on A549 NSCLC, with OVCAR-5 ovarian and with SK-MEL-28 melanoma was more than 100 µM throughout. Also, the TGI in the experiment on SNB-19 CNS, in the experiment on 786-0 renal, in the experiment with SF-268 CNS and with HT29 colon was more than 100 µM in each case.
On to `COc1ccc(/C=C(\C#N)n2nnc3ccccc32)cc1`, for which the GI50 in the experiment with RPMI-8226 leukemia was 0.385 µM; in the experiment with K-562 leukemia, 0.043 µM; in the experiment with PC-3 prostate it was 0.293 µM; in the experiment with A549 NSCLC, 0.235 µM; in the experiment with OVCAR-5 ovarian, 0.463 µM; with SK-MEL-28 melanoma it was 1.65 µM. The GI50 in the experiment on SNB-19 CNS was 0.361 µM; in the experiment with 786-0 renal it was 0.63 µM; in the experiment on SF-268 CNS it was 2.42 µM; in the experiment with HT29 colon it was 0.0453 µM. The TGI in the experiment on RPMI-8226 leukemia is 24.6 µM; with K-562 leukemia, more than 100 µM; in the experiment with PC-3 prostate, more than 60 µM; with A549 NSCLC it was more than 100 µM; in the experiment on SK-MEL-28 melanoma, more than 86.9 µM; in the experiment with SNB-19 CNS, 13.3 µM. Besides, the TGI was 7.22 µM in the experiment with 786-0 renal, more than 100 µM with SF-268 CNS and more than 100 µM in the experiment on HT29 colon.
On to `O=C(Nc1ccc2[nH]c(=S)sc2c1)Nc1ccccc1F`, for which the GI50 in the experiment with RPMI-8226 leukemia is 18 µM; in the experiment on K-562 leukemia, 28.6 µM; with PC-3 prostate, 21.5 µM; in the experiment on A549 NSCLC it was 51.2 µM; in the experiment on OVCAR-5 ovarian it was 56.4 µM; in the experiment on SK-MEL-28 melanoma, 42.2 µM. The GI50 in the experiment on SNB-19 CNS is 41.8 µM; in the experiment on 786-0 renal, 51.6 µM; in the experiment with SF-268 CNS, 38.2 µM; in the experiment on HT29 colon, 44.3 µM. Besides, the TGI with RPMI-8226 leukemia, with K-562 leukemia, in the experiment on PC-3 prostate, in the experiment with A549 NSCLC, in the experiment on OVCAR-5 ovarian and in the experiment on SK-MEL-28 melanoma was more than 100 µM each time. In addition, the TGI in the experiment with SNB-19 CNS, in the experiment with 786-0 renal, in the experiment with SF-268 CNS and in the experiment on HT29 colon was more than 100 µM throughout.
Regarding `C=C(C)[C@@H]1CC[C@]2(C)[C@H](CC=C3[C@@H]4[C@@H](C)[C@H](C)CC[C@]4(C(N)=O)CC[C@]32C)[C@@]1(C)CCC#N`, the GI50 with RPMI-8226 leukemia is 2.18 µM; in the experiment with K-562 leukemia it was 3.38 µM; with PC-3 prostate, 2.58 µM; in the experiment on A549 NSCLC, 3.35 µM; with OVCAR-5 ovarian it was 5.75 µM; in the experiment on SK-MEL-28 melanoma, 7.57 µM. For the same molecule, the GI50 was 6.31 µM in the experiment with SNB-19 CNS, 2.26 µM in the experiment on 786-0 renal, 4.52 µM in the experiment with SF-268 CNS and 3.34 µM in the experiment on HT29 colon. For the same molecule, the TGI with RPMI-8226 leukemia is 6.27 µM; with K-562 leukemia it was more than 100 µM; with PC-3 prostate, 21 µM; with A549 NSCLC, more than 100 µM; with OVCAR-5 ovarian, more than 100 µM; in the experiment with SK-MEL-28 melanoma it was 22.7 µM. In addition, the TGI was more than 100 µM in the experiment with SNB-19 CNS, 5.75 µM in the experiment with 786-0 renal, more than 100 µM in the experiment with SF-268 CNS and 21.1 µM in the experiment on HT29 colon.
As for `CC(C)c1c(O)ccc2c1CCC1C(C)(C)CCCC21C` (configuration not stated), the TGI in the experiment on RPMI-8226 leukemia is 49.3 µM; with K-562 leukemia it was 50 µM; with PC-3 prostate, 31.4 µM; with A549 NSCLC, 31.9 µM; in the experiment on OVCAR-5 ovarian it was 28.1 µM; with SK-MEL-28 melanoma, 38.1 µM. Also, the TGI turned out to be 32.3 µM in the experiment on SNB-19 CNS, 32.2 µM with 786-0 renal, 35.5 µM in the experiment with SF-268 CNS and 32.1 µM in the experiment with HT29 colon.
As for `OC(CNCC1CCCO1)Cn1c2ccc(Cl)cc2c2cc(Cl)ccc21` (configuration not stated), the GI50 was 2.69 µM in the experiment on RPMI-8226 leukemia; 2.15 µM with K-562 leukemia; 1.93 µM in the experiment on PC-3 prostate; 1.87 µM with A549 NSCLC; 1.89 µM with OVCAR-5 ovarian; 1.67 µM with SK-MEL-28 melanoma. In addition, the GI50 with SNB-19 CNS is 1.88 µM; in the experiment with 786-0 renal it was 1.59 µM; in the experiment on SF-268 CNS it was 1.87 µM; in the experiment with HT29 colon, 1.94 µM. Moreover, the TGI is 6.2 µM in the experiment on RPMI-8226 leukemia; 4.76 µM in the experiment with K-562 leukemia; 3.74 µM with PC-3 prostate; 3.69 µM with A549 NSCLC; 3.61 µM in the experiment on OVCAR-5 ovarian; 3.15 µM in the experiment on SK-MEL-28 melanoma. Moreover, the TGI in the experiment with SNB-19 CNS turned out to be 3.96 µM; in the experiment on 786-0 renal, 3.08 µM; in the experiment with SF-268 CNS, 3.77 µM; with HT29 colon, 3.72 µM.
Take `Oc1[nH]c2c(Br)cccc2c1C1=Nc2ccccc2/C1=N/OCCN1CCCC1`: the GI50 in the experiment with RPMI-8226 leukemia is 1.35 µM and 1.59 µM; in the experiment with K-562 leukemia it was 0.424 µM; in the experiment on PC-3 prostate, 0.824 µM; with A549 NSCLC, 1.91 µM; with OVCAR-5 ovarian it was 1.21 µM and 1.91 µM; in the experiment with SK-MEL-28 melanoma, 1.92 µM. In addition, the GI50 in the experiment with SNB-19 CNS was 1.93 µM; in the experiment on 786-0 renal it was 0.648 µM and 0.942 µM; in the experiment on SF-268 CNS, 0.813 µM; with HT29 colon, 0.561 µM. Also, the TGI in the experiment with OVCAR-5 ovarian is 4.82 µM and 14.7 µM; with SK-MEL-28 melanoma it was 5.49 µM; with 786-0 renal, 2.58 µM and 4.31 µM; in the experiment with HT29 colon, 6.6 µM.
As to `CCC[CH2][Sn]([CH2]CCC)([CH2]CCC)[O]C(=O)c1ccc(Cl)cc1Cl`, the GI50 was 0.146 µM with RPMI-8226 leukemia; 0.263 µM in the experiment on K-562 leukemia; 0.202 µM in the experiment with PC-3 prostate; 0.164 µM in the experiment with A549 NSCLC; 0.135 µM in the experiment with OVCAR-5 ovarian; 0.159 µM in the experiment on SK-MEL-28 melanoma. In addition, the GI50 with SNB-19 CNS was 0.179 µM; with 786-0 renal, 0.13 µM; in the experiment on SF-268 CNS, 0.134 µM; with HT29 colon it was 0.125 µM. Also, the TGI with K-562 leukemia came out at 1.02 µM; with PC-3 prostate it was 0.471 µM; in the experiment with A549 NSCLC, 0.328 µM; with OVCAR-5 ovarian, 0.315 µM; in the experiment with SK-MEL-28 melanoma it was 0.302 µM; in the experiment with SNB-19 CNS it was 0.359 µM. In addition, the TGI in the experiment on 786-0 renal is 0.259 µM; in the experiment on SF-268 CNS, 0.283 µM; in the experiment on HT29 colon it was 0.283 µM.
Regarding `CN(C)CC1C(=O)O[C@H]2[C@H]1CC/C(COC(=O)c1cc3ccccc3[nH]1)=C\CC[C@@]1(C)O[C@@H]21` (some centres not stated), the GI50 in the experiment on RPMI-8226 leukemia was 0.354 µM; with K-562 leukemia it was 1.14 µM; in the experiment on PC-3 prostate, 2.14 µM; in the experiment with A549 NSCLC it was 4.62 µM; in the experiment with OVCAR-5 ovarian it was 2.37 µM; with SK-MEL-28 melanoma, 2.17 µM. In addition, the GI50 is 11.4 µM in the experiment on SNB-19 CNS, 1.69 µM with 786-0 renal, 1.65 µM in the experiment with SF-268 CNS and 0.671 µM in the experiment on HT29 colon. Besides, the TGI in the experiment with RPMI-8226 leukemia was determined as 2.11 µM; in the experiment with K-562 leukemia, 6.11 µM; with PC-3 prostate it was 5.86 µM; in the experiment with A549 NSCLC, 14.3 µM; in the experiment with OVCAR-5 ovarian it was 6.15 µM; in the experiment on SK-MEL-28 melanoma, 5.24 µM. Further, the TGI with SNB-19 CNS was found to be 25.9 µM; in the experiment on 786-0 renal, 4.88 µM; in the experiment on SF-268 CNS, 3.43 µM; with HT29 colon, 2.57 µM.
As for `COc1ccc(C(=O)/C=C/c2ccc3c(c2)OCO3)c(OCc2ccccc2)c1`, the TGI in the experiment on RPMI-8226 leukemia was 76.6 µM; in the experiment with K-562 leukemia, more than 100 µM; with PC-3 prostate it was more than 100 µM; in the experiment on A549 NSCLC, more than 100 µM; in the experiment with OVCAR-5 ovarian, more than 100 µM; with SK-MEL-28 melanoma it was more than 100 µM. The TGI in the experiment with SNB-19 CNS, in the experiment with 786-0 renal, in the experiment on SF-268 CNS and with HT29 colon was more than 100 µM throughout.
Consider `COc1cc(/C=C/C(=O)c2c(C)nc3ccccc3c2/C=C/c2ccc(C)cc2)cc(OC)c1OC`, for which the GI50 with RPMI-8226 leukemia is 2.56 µM; in the experiment on K-562 leukemia it was 2.75 µM; in the experiment with PC-3 prostate, 2.59 µM; with A549 NSCLC, 2.94 µM; with OVCAR-5 ovarian, 2.18 µM; with SK-MEL-28 melanoma, 2.02 µM. The GI50 with SNB-19 CNS is 1.69 µM; with 786-0 renal, 1.95 µM; in the experiment on SF-268 CNS, 2.21 µM; with HT29 colon, 2.81 µM. The TGI in the experiment with RPMI-8226 leukemia is 7.87 µM; in the experiment with K-562 leukemia, more than 100 µM; in the experiment on PC-3 prostate it was 8.76 µM; with A549 NSCLC, more than 100 µM; in the experiment on OVCAR-5 ovarian, 5.38 µM; with SK-MEL-28 melanoma it was 3.91 µM. In addition, the TGI is 3.14 µM in the experiment with SNB-19 CNS, 3.81 µM in the experiment on 786-0 renal, 6.42 µM in the experiment with SF-268 CNS and 14 µM in the experiment on HT29 colon.
